Key:
Fruit [1] = test: Drug degradation in Solanum lycopersicum (tomato) plant fruits at 300 g/L treated under green house condition measured after 15 days relative to initial level; type: ADME; details: 360 h
Leaf [2] = test: Drug degradation in Solanum lycopersicum (tomato) plant leaves at 300 g/L treated under green house condition measured after 5 days relative to initial level; type: ADME; details: 120 h
Fruit [3] = test: Residue remaining in Solanum lycopersicum (tomato) plant fruits at 300 g/L treated under green house condition measured after 3 days relative to initial level; details: 72 h
Leaf [4] = test: Drug degradation in Solanum lycopersicum (tomato) plant leaves at 300 g/L treated under green house condition measured after 15 days relative to initial level; type: ADME; details: 360 h
[5] = Half life in Solanum lycopersicum (tomato) plant leaves at 300 g/L treated under green house condition; type: ADME, Leaf
Leaf [6] = test: Drug degradation in Solanum lycopersicum (tomato) plant leaves at 300 g/L treated under green house condition measured after 10 days relative to initial level; type: ADME; details: 240 h
Leaf [7] = test: Drug degradation in Solanum lycopersicum (tomato) plant leaves at 300 g/L treated under green house condition measured after 6 days relative to initial level; type: ADME; details: 144 h
Leaf [8] = test: Drug degradation in Solanum lycopersicum (tomato) plant leaves at 300 g/L treated under green house condition measured after 4 days relative to initial level; type: ADME; details: 96 h
Leaf [9] = test: Drug residue remaining in Solanum lycopersicum (tomato) plant leaves at 300 g/L treated under green house condition measured after 22 days relative to initial level; details: 528 h
Leaf [10] = test: Residue remaining in Solanum lycopersicum (tomato) plant leaves at 300 g/L treated under green house condition measured after 7 days relative to initial level; details: 168 h
Leaf [11] = test: Residue remaining in Solanum lycopersicum (tomato) plant leaves at 300 g/L treated under green house condition measured after 11 days relative to initial level; details: 264 h
Fruit [12] = test: Drug degradation in Solanum lycopersicum (tomato) plant fruits at 300 g/L treated under green house condition measured after 22 days relative to initial level; type: ADME; details: 528 h
Leaf [13] = test: Drug recovery in Solanum lycopersicum (tomato) plant leaves at 1.83 ug/cm'2 of spiking level; type: ADME
Fruit [14] = test: Drug recovery in Solanum lycopersicum (tomato) plant fruits at 0.14 ug/g of spiking level; type: ADME
Leaf [15] = test: Drug degradation in Solanum lycopersicum (tomato) plant leaves at 300 g/L treated under green house condition measured after 3 days relative to initial level; type: ADME; details: 72 h
[16] = Half life in Solanum lycopersicum (tomato) plant fruits at 300 g/L treated under green house condition; type: ADME, Fruit
Leaf [17] = test: Drug degradation in Solanum lycopersicum (tomato) plant leaves at 300 g/L treated under green house condition measured after 1 day relative to initial level; type: ADME; details: 24 h
Leaf [18] = test: Drug degradation in Solanum lycopersicum (tomato) plant leaves at 300 g/L treated under green house condition measured after 8 days relative to initial level; type: ADME; details: 192 h
Fruit [19] = test: Drug degradation in Solanum lycopersicum (tomato) plant fruits at 300 g/L treated under green house condition measured after 1 day relative to initial level; type: ADME; details: 24 h
Fruit [20] = test: Drug degradation in Solanum lycopersicum (tomato) plant fruits at 300 g/L treated under green house condition measured after 8 days relative to initial level; type: ADME; details: 192 h
Fruit [21] = test: Drug degradation in Solanum lycopersicum (tomato) plant fruits at 300 g/L treated under green house condition measured after 10 days relative to initial level; type: ADME; details: 240 h

SMILES: Cc1cc(C)nc(Nc2ccccc2)n1 [PYRIMETHANIL]
- Residue remaining (Fruit [1]): 5%
- Drug remaining (Leaf [2]): 25%
- Residue remaining (Fruit [3]): 79%
- Drug degradation (Leaf [4]): 0%
- half-life [5]: 96 h
- Drug degradation (Leaf [6]): 0.02%
- Residue remaining (Leaf [7]): 11%
- Residue remaining (Leaf [8]): 22%
- Residue remaining (Leaf [9]): 0%
- Residue remaining (Leaf [10]): 11%
- Residue remaining (Leaf [11]): 0%
- Residue remaining (Fruit [12]): 0%
- Drug recovery (Leaf [13]): 91%
- Drug recovery (Fruit [14]): 99%
- Residue remaining (Leaf [15]): 41%
- half-life [16]: 137 h
- Drug remaining (Leaf [17]): 100%
- Drug degradation (Leaf [18]): 0%
- Drug remaining (Fruit [19]): 100%
- Residue remaining (Fruit [20]): 16%
- Drug remaining (Fruit [21]): 15%
